Test results reported in ChEMBL document CHEMBL3885881, “DrugMatrix”.

Species: Rattus norvegicus
Assay: DrugMatrix - Regimen: Daily Repeat
Type: toxicity, organism-based, Sprague-Dawley
Parameters: regimen Daily Repeat, gender Male, age 6-8 weeks
Conditions: in vivo, po, route oral GAVAGE, vehicle .5 % CMC; for ABSOLUTE BASOPHIL / ABSOLUTE EOSINOPHIL / ABSOLUTE LYMPHOCYTE / ABSOLUTE MONOCYTE / ABSOLUTE SEGMENTED NEUTROPHIL / BASOPHIL / EOSINOPHIL / ERYTHROCYTE COUNT / HEMATOCRIT / HEMOGLOBIN / LEUKOCYTE COUNT / LYMPHOCYTE / MEAN CORPUSCULAR HEMOGLOBIN / MEAN CORPUSCULAR HEMOGLOBIN CONCENTRATION / MEAN CORPUSCULAR VOLUME / MONOCYTE / NEUTROPHIL / NUCLEATED RED BLOOD CELLS / PLATELET COUNT: tissue Blood; for ALANINE AMINOTRANSFERASE / ALBUMIN / ALKALINE PHOSPHATASE / ASPARTATE AMINOTRANSFERASE / BLOOD UREA NITROGEN / CARBON DIOXIDE / CHLORIDE / CHOLESTEROL / CREATINE PHOSPHOKINASE / CREATININE / GLUCOSE / LACTATE DEHYDROGENASE / LIPASE / PHOSPHORUS / POTASSIUM / SODIUM / TOTAL BILIRUBIN / TOTAL PROTEIN / URIC ACID: tissue Plasma
[1] = 0 mg/kg, 72 h, dose level Control, time 3 day
[2] = 0 mg/kg, 120 h, dose level Control, time 5 day
[3] = 150 mg/kg, 72 h, dose level Low, time 3 day

C[C@]1(Cn2ccnn2)[C@H](C(=O)O)N2C(=O)C[C@H]2S1(=O)=O [TAZOBACTAM]
ABSOLUTE BASOPHIL [1]: 0 CELLS/uL
ABSOLUTE EOSINOPHIL [1]: 222.83 CELLS/uL
ABSOLUTE LYMPHOCYTE [1]: 14453 CELLS/uL
ABSOLUTE MONOCYTE [1]: 0 CELLS/uL
ABSOLUTE SEGMENTED NEUTROPHIL [1]: 1490.83 CELLS/uL
BASOPHIL [1]: 0%
EOSINOPHIL [1]: 1.33%
ERYTHROCYTE COUNT [1]: 5.76 x10E6/uL
HEMATOCRIT [1]: 36.52%
HEMOGLOBIN [1]: 13.45 G/DL
LEUKOCYTE COUNT [1]: 16.17 x10E3/uL
LYMPHOCYTE [1]: 89.33%
MEAN CORPUSCULAR HEMOGLOBIN [1]: 23.37 pg
MEAN CORPUSCULAR HEMOGLOBIN CONCENTRATION [1]: 36.85 G/DL
MEAN CORPUSCULAR VOLUME [1]: 63.47 fL
MONOCYTE [1]: 0%
NEUTROPHIL [1]: 9.33%
NUCLEATED RED BLOOD CELLS [1]: 0 /100WBC
PLATELET COUNT [1]: 1239.5 x10E3/uL
ALANINE AMINOTRANSFERASE [1]: 43.83 u/L
ALBUMIN [1]: 4.27 G/DL
ALKALINE PHOSPHATASE [1]: 398.83 u/L
ASPARTATE AMINOTRANSFERASE [1]: 81.17 u/L
BLOOD UREA NITROGEN [1]: 17.67 mg/dL
CARBON DIOXIDE [1]: 27.5 mmol/L
CHLORIDE [1]: 99.17 MEQ/L
CHOLESTEROL [1]: 74 mg/dL
CREATINE PHOSPHOKINASE [1]: 331.5 u/L
CREATININE [1]: 0.2 mg/dL
GLUCOSE [1]: 171.33 mg/dL
LACTATE DEHYDROGENASE [1]: 241.67 u/L
LIPASE [1]: 9.5 u/L
PHOSPHORUS [1]: 12.25 mg/dL
POTASSIUM [1]: 6.33 MEQ/L
SODIUM [1]: 141.28 MEQ/L
TOTAL BILIRUBIN [1]: 0.15 mg/dL
TOTAL PROTEIN [1]: 5.98 G/DL
URIC ACID [1]: 1.63 mg/dL
ABSOLUTE BASOPHIL [2]: 0 CELLS/uL
ABSOLUTE EOSINOPHIL [2]: 148.67 CELLS/uL
ABSOLUTE LYMPHOCYTE [2]: 16020.5 CELLS/uL
ABSOLUTE MONOCYTE [2]: 29.17 CELLS/uL
ABSOLUTE SEGMENTED NEUTROPHIL [2]: 1468.33 CELLS/uL
BASOPHIL [2]: 0%
EOSINOPHIL [2]: 1%
ERYTHROCYTE COUNT [2]: 5.78 x10E6/uL
HEMATOCRIT [2]: 35.77%
HEMOGLOBIN [2]: 13.4 G/DL
LEUKOCYTE COUNT [2]: 17.67 x10E3/uL
LYMPHOCYTE [2]: 90.5%
MEAN CORPUSCULAR HEMOGLOBIN [2]: 23.22 pg
MEAN CORPUSCULAR HEMOGLOBIN CONCENTRATION [2]: 37.47 G/DL
MEAN CORPUSCULAR VOLUME [2]: 61.92 fL
MONOCYTE [2]: 0.17%
NEUTROPHIL [2]: 8.33%
NUCLEATED RED BLOOD CELLS [2]: 0.17 /100WBC
PLATELET COUNT [2]: 1255.5 x10E3/uL
ALANINE AMINOTRANSFERASE [2]: 46.5 u/L
ALBUMIN [2]: 4.38 G/DL
ALKALINE PHOSPHATASE [2]: 336 u/L
ASPARTATE AMINOTRANSFERASE [2]: 76.5 u/L
BLOOD UREA NITROGEN [2]: 20 mg/dL
CARBON DIOXIDE [2]: 27.5 mmol/L
CHLORIDE [2]: 101 MEQ/L
CHOLESTEROL [2]: 71.33 mg/dL
CREATINE PHOSPHOKINASE [2]: 231.83 u/L
CREATININE [2]: 0.37 mg/dL
GLUCOSE [2]: 168.83 mg/dL
LACTATE DEHYDROGENASE [2]: 174 u/L
LIPASE [2]: 8.67 u/L
PHOSPHORUS [2]: 11.48 mg/dL
POTASSIUM [2]: 6.82 MEQ/L
SODIUM [2]: 143.8 MEQ/L
TOTAL BILIRUBIN [2]: 0.2 mg/dL
TOTAL PROTEIN [2]: 5.98 G/DL
URIC ACID [2]: 1.83 mg/dL
ABSOLUTE BASOPHIL [3]: 0 CELLS/uL
ABSOLUTE EOSINOPHIL [3]: 82.67 CELLS/uL
ABSOLUTE LYMPHOCYTE [3]: 6416 CELLS/uL
ABSOLUTE MONOCYTE [3]: 0 CELLS/uL
ABSOLUTE SEGMENTED NEUTROPHIL [3]: 534.67 CELLS/uL
BASOPHIL [3]: 0%
EOSINOPHIL [3]: 1%
ERYTHROCYTE COUNT [3]: 5.07 x10E6/uL
HEMATOCRIT [3]: 32.53%
HEMOGLOBIN [3]: 12.5 G/DL
LEUKOCYTE COUNT [3]: 7.03 x10E3/uL
LYMPHOCYTE [3]: 91.67%
MEAN CORPUSCULAR HEMOGLOBIN [3]: 24.63 pg
MEAN CORPUSCULAR HEMOGLOBIN CONCENTRATION [3]: 38.43 G/DL
MEAN CORPUSCULAR VOLUME [3]: 64.17 fL
MONOCYTE [3]: 0%
NEUTROPHIL [3]: 7.33%
NUCLEATED RED BLOOD CELLS [3]: 0 /100WBC
PLATELET COUNT [3]: 1184.33 x10E3/uL
ALANINE AMINOTRANSFERASE [3]: 52.67 u/L
ALBUMIN [3]: 4.23 G/DL
ALKALINE PHOSPHATASE [3]: 410.33 u/L
ASPARTATE AMINOTRANSFERASE [3]: 79.67 u/L
BLOOD UREA NITROGEN [3]: 16.67 mg/dL
CARBON DIOXIDE [3]: 24.33 mmol/L
CHLORIDE [3]: 104 MEQ/L
CHOLESTEROL [3]: 78 mg/dL
CREATINE PHOSPHOKINASE [3]: 280.33 u/L
CREATININE [3]: 0.2 mg/dL
GLUCOSE [3]: 152.33 mg/dL
LACTATE DEHYDROGENASE [3]: 134.33 u/L
LIPASE [3]: 8 u/L
PHOSPHORUS [3]: 11.47 mg/dL
POTASSIUM [3]: 6.02 MEQ/L
SODIUM [3]: 144.87 MEQ/L
TOTAL BILIRUBIN [3]: 0.2 mg/dL
TOTAL PROTEIN [3]: 5.9 G/DL
URIC ACID [3]: 1.03 mg/dL
